Measured values from patent publication US20020086027A1, “Composition and method for enhancing immunological memory response” (priority 1998, published 2002).

Tests used:
human T cells [1] = test: Primary alloproliferative response of responder PBMCs to irradiated MHC-mismatched stimulator PBMCs ([3H]thymidine incorporation); assay type: cell-based
Description: In this system, we have used responses to first exposure as an indication of primary responses. When cells stimulated in this fashion are rested in culture and then restimulated with the same stimulator PBMCs, the 'recall' response measured are taken as an indication of immune memory. Proliferation is measured by the incorporation of radioactive tritiated thymidine in dividing cells. PBMCs from HLA-mismatched individuals were separated using density-gradient centrifugation on Ficoll-Paque (Pharmacia, Uppsala, Sweden). Stimulator PBMCs were used in titrated doses after g-irradiation (200 rads). For the primary proliferative alloresponses, stimulator in graded doses were used with 1-3×10^5 responders per well in 200 μl of RPMI-1640 (Life Technologies, Grand Island, N.Y.) fortified with L-glutamine (Life Technologies) and antibiotics, containing 10% heat-inactivated responder autologous serum. Cultures were incubated in a CO2 atmosphere for five days, pulsed with 0.5 uCi of (H^3)-thymidine (New England Nuclear, Boston, Mass.) for the last 8-12 hours of the assay and harvested onto glass fiber filters for counting cell-incorporated thymidine (Betaplate; Wallac, Finland). results are expressed as mean cpm±SE for triplicate cultures. Dibutyryl cyclic AMP (dbcAMP), pentoxifylline (POX), aphidicolin (all from Sigma Chemical Co., St Louis, Mo.) and recombinant IL-2 (Boehringer Manheim Corp., Manheim Germany) were added singly or together to the culture in various doses as indicated during priming and in primary alloresponse assays. […] Sigma Chemical Co.) at room temperature for 20 minutes, washed extensively and used. PBMCs from MHC-mismatched donors were used as responder-stimulator pairs. Stimulator cells were used after γ-irradiation (200 rad) at various concentrations, as shown. Proliferation assays were set up as parallel cultures and were pulsed and harvested as below on different days when necessary for the analyses of the kinetics of the response. Where appropriate, cyclosporin A (CsA, Sandoz, Milan, Italy), aphidicolin (Aph, Sigma Chemical Co., and/or pentoxifylline ([…], Sigma Chemical Co.) Were added at the concentrations indicated, or PFA-fixed PBMCs were used. The plated were pulsed with 0.5 to 1 μCi of (^3H)thymidine ([^3H]TdR. Amersham, Little Chalfont, U.K.) During the last 12 to 16 h of the assay (4 days for a recall assay and 6 days for a primary assay, unless indicated otherwise). [^3H] TdR incorporation was measured by harvesting the cultures on glass-fibers and counting in a scintillation counter (Betaplate: LKB-Pharmacia. Uppsala, […]). The results are expressed as mean cpm±SE of triplicate cultures.

human T cells [2] = test: Secondary (recall) alloproliferative response of T cells primed in vitro; assay type: cell-based
Description: In this system, we have used responses to first exposure as an indication of primary responses. When cells stimulated in this fashion are rested in culture and then restimulated with the same stimulator PBMCs, the 'recall' response measured are taken as an indication of immune memory. Proliferation is measured by the incorporation of radioactive tritiated thymidine in dividing cells. For priming, responder and stimulator cells mixed in 2-5 ml cultures in a ratio of 1:1-3:1. After five days of incubation, the cells were harvested, counted and viable cells used as primed responders with g-irradiated allostimulators in secondary alloproliferation assays, which were pulsed with (H^3)-thymidine after four days for estimating cell proliferation. For flow cytometric analysis, cells were separated from debris by Ficoll-Paque gradient centrifugation before staining. […] Sigma Chemical Co.) at room temperature for 20 minutes, washed extensively and used. For priming in vitro, responder PBMCs were incubated for 72 or 144 h at a ratio of either 1:1 or 2:1 respectively, with stimulator PBMCs. Where appropriate, CsA. Aph. and/or […] were added at the concentrations indicated, of PFA-fixed PBMCs were used instead.

CD25+ CD4 T cells = test: Flow cytometry of CD25 and Fas (CD95) on primed cells; assay type: cell-based, human; conditions: aphidicolin 1 ug/ml present during two-day rest period
Description: For analysis of cell surface markers, primed cell populations separated on Ficoll-Paque gradients were used. […] Briefly, 1-3×10^5 cells per well were stained with primary antibodies at 4° C., followed by appropriately labeled secondary reagents if required. Samples were analyzed using a Bryte flow cytometer (bio-Rad, Hemel Hampstead, UK). Antibodies to the T cell markers CD3 (OKT3), CD4 (OKT4), and to the activation markers CD25 and Fas (CD95) were used for staining. To detect apoptosis using propidium iodide (PI, Sigma Chemical Co.), antibody-stained cells were fixed and permeabilized with 70% ethanol, washed, and PI […] added just before cytometric analysis. Data were analyzed using FlowJo software (Treestar, San Jose, Calif.).
The phenotype of CD4 T cells activated during priming in vitro was examined next using various markers associated with T cell activation. Antibodies against CD25 (IL-2Ra), CD26, CD45RO, CD69 and gp240 were used, but except for CD25, none of the other markers gave consistent and reliable results (data not shown). CD25 expression on CD4 T cells in the responder populations was examined in a two-color flow cytometric analysis at two separate time points,—at the end of six days of priming and after two further rest days in culture after washing and resuspension in resh medium without any stimuli. Most CD25-expressing cells in the primed cultures were CD4 T cells. […] The frequency of CD25 expression increased in the PBMC-primed responders (FIG. 17B) and this percentage was lower if POX (100 μg/ml) was present during priming (FIG. 17C). […] Similar data were observed if dbcAMP was present during priming (data not shown). It can be seen that the proportion of CD25* cells was reproducibly lower if POX was present during priming with allo-PBMCs. However, after 48 hours of rest in culture, the frequency of CD25* cells declined in the populations primed in the absence of POX, while it went up in the group primed under POX cover.

[3] = tested on: allo-specific precursor T cells; test: Limiting dilution analysis of clonal responder frequency and burst size; assay type: cell-based, human; conditions: drug present during priming (POX 100 ug/ml)
Source text: Limiting dilution analyses were used to calculate the number of transplantation antigen-specific memory T cells in cultures primed in the presence or absence of POX. Multiple replicate wells of titrated numbers of primed responders were restimulated. the numbers of wells showing proliferative responses at each responder dose were used to calculate the frequency of responding memory t cells in the primed populations. estimates of the extent of proliferation in wells effectively containing single responder cells served as a measure of clonal burst size. […] To determine the frequence of all-specific precursor cells in the various responder populations, titrating numbers (from 10,000 to 200 per well) of variously primed cells were added to a constant number (1×10^5 per well) of g-irradiated stimulator PBMCs. Of the 48 wells plated per responder dose, those wells showing a response at least twice that of the background value were scored positive. The responder frequency was calculated by taking the number of negative wells into account. The response was considered clonal at the responder cell number where the proportion of positively responding wells was less than 37%. At responder cell concentrations showing clonal frequencies, the average cpm values of responding (versus non-responding) wells were used as an estimate of the average clonal burst size of single responding T cells.

C[C@@]1(CO)[C@H](O)CC[C@@]2(C)[C@H]1CC[C@H]1C[C@@H]3C[C@@]12CC[C@]3(O)CO [Aph, aphidicolin]
T cell proliferation in first response (human T cells [1]; 1 μg/ml Aph): inhibited substantially | T cell proliferation in first response (human T cells [1]; 3 μg/ml Aph): completely undetectable | kinetics of primary response (human T cells [1]; days 4-10, drugs present throughout): declines equivalently | primary response after drug removal (human T cells [1]; drugs removed on day 6, pulsed days 8 and 10): no increase | responses of unprimed PBMCs incubated with Aph (human T cells [2]; no stimulators): unaltered | recall response (human T cells [2]; primed with 1 μg/ml Aph vs primed in absence of Aph): comparable | recall response (human T cells [2]; primed with 3 μg/ml Aph): significant enhancement | increase in frequency of CD25+ cells in responders exposed to POX during priming (CD25+ CD4 T cells): does not abrogate

CCCC(=O)Nc1ncnc2c1ncn2[C@@H]1O[C@@H]2COP(=O)(O)O[C@H]2[C@H]1OC(=O)CCC [dbcAMP, Dibutyryl cyclic AMP]
primary proliferative response (human T cells [1]; 1 mM dbcAMP): inhibits | primary proliferative response (human T cells [1]; 10 mM dbcAMP): No effect | primary proliferative response (human T cells [1]; 100 mM dbcAMP): does inhibit | recall response (human T cells [2]; priming in presence of 10 mM dbcAMP): No effect | secondary response (human T cells [2]; priming in presence of 100 mM dbcAMP): significant enhancement | frequency of alloreactive responder (memory) T cells [3]: significantly enhances

paraformaldehyde [PFA]
primary alloproliferative response to PFA-fixed APCs (human T cells [1]; 0.0003% PFA): significant lowering | recall response capability induced by PFA-fixed APCs (human T cells [2]; 0.003% PFA, vs unfixed APCs): comparable with or greater than | recall response of cells primed with PFA-fixed APCs (human T cells [2]; 0.3% PFA, vs unprimed cells): distinctly lower
